# Test results reported in US10758534B2 (Vertex Pharmaceuticals Incorporated, priority 2014, dated 2020).
# Target: T1, F508del (Homo sapiens, UniProt P13569, DEL508-508)
# T1 construct: expressed in transfected cells
# Assay: Protocol 2: FRET membrane potential optical assay (VIPR), identification of correction compounds
# Format: cell-based
# Conditions: F508del CFTR modulator activity; compounds of Table 1; read-out: EC30
# How it was run: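 Single-addition HTS format: F508del-expressing NIH3T3 cells pre-incubated 16 hrs at 37° C. ± compound, with 27° C. culture as positive control. Channel activation by forskolin 10 μM and genistein 20 μM upon switch to gluconate bath, pH 7.4; read-out is FRET-based depolarization signal.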
# T1 sequence (P13569 with tags, fused parts or gaps DEL508-508): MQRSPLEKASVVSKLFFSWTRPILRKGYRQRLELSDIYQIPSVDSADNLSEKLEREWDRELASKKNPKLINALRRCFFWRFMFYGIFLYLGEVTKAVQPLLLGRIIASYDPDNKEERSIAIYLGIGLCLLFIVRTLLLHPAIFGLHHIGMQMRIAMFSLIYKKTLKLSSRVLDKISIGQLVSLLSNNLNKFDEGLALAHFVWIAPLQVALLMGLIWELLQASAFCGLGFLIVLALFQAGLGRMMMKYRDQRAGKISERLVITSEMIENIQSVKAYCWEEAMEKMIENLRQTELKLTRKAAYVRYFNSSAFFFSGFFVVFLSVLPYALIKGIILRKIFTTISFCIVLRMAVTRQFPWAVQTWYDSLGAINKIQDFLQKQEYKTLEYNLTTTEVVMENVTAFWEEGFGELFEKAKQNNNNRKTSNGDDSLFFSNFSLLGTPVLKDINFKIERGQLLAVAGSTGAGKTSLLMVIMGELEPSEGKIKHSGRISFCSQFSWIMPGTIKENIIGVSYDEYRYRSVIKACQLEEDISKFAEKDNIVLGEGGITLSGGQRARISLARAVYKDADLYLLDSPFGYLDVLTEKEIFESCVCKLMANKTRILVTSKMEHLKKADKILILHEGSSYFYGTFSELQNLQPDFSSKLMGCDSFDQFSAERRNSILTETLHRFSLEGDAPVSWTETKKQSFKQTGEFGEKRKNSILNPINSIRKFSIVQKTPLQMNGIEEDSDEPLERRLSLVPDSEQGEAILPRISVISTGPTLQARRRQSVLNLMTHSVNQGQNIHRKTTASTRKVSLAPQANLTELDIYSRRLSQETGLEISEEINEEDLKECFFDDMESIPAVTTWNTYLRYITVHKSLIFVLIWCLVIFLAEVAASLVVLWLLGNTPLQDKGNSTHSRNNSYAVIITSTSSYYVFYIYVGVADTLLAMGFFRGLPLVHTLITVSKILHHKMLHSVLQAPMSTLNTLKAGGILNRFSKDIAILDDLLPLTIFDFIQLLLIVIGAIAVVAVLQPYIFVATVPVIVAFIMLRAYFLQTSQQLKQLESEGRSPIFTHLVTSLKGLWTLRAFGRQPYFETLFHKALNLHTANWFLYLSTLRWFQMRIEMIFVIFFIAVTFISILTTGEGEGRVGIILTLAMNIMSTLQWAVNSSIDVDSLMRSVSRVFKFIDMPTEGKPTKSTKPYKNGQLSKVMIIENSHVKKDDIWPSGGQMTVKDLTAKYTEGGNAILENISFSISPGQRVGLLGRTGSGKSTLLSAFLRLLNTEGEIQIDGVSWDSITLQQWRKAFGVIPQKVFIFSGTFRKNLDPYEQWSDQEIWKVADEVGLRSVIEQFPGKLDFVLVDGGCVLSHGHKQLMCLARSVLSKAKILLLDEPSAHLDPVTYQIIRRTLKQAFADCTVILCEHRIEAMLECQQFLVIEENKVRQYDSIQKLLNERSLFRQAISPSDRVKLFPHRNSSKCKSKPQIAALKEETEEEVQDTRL
row,SMILES,EC30
1,"CC(C)COc1cc(F)cc(-c2ccc(C(=O)NS(=O)(=O)c3cccc(N)n3)c(N3CCC(O)CC3)n2)c1 [Compound 2323, N-[(6-amino-2-pyridyl)sulfonyl]-6-(3-fluoro-5-isobutoxy-phenyl)-2-(4-hydroxy-1-piperidyl)pyridine-3-carboxamide]",3000 to 10000 nM
2,"CC1CN(c2ncccc2C(=O)NS(=O)(=O)c2cccc(N3CCOC(C)C3)n2)C(C)(C)C1 (stereo not drawn) [Compound 2324, N—[[6-(2-methylmorpholin-4-yl)-2-pyridyl]sulfonyl]-2-(2,2,4-trimethylpyrrolidin-1-yl)pyridine-3-carboxamide]",3000 to 10000 nM
3,"CCOCCOCCOc1ccn(-c2ccc(C(=O)NS(=O)(=O)c3cccnc3N)c(N3C[C@@H](C)CC3(C)C)n2)n1 [Compound 2326, N-[(2-amino-3-pyridyl)sulfonyl]-6-[3-[2-(2-ethoxyethoxy)ethoxy]pyrazol-1-yl]-2-[(4S)-2,2,4-trimethylpyrrolidin-1-yl]pyridine-3-carboxamide]",< 3000 nM
4,"COc1ccc(-c2ccc(C(=O)NS(=O)(=O)N3CC[C@H](N)C3)c(N3C[C@@H](C)CC3(C)C)n2)cc1 [Compound 2327, N-[(3S)-3-aminopyrrolidin-1-yl]sulfonyl-6-(4-methoxyphenyl)-2-[(4S)-2,2,4-trimethylpyrrolidin-1-yl]pyridine-3-carboxamide]",3000 to 10000 nM
5,"CC1CN(c2ncccc2C(=O)NS(=O)(=O)c2cccc(OCCC3CCOCC3)n2)C(C)(C)C1 (stereo not drawn) [Compound 2329, N—[[6-(2-tetrahydropyran-4-ylethoxy)-2-pyridyl]sulfonyl]-2-(2,2,4-trimethylpyrrolidin-1-yl)pyridine-3-carboxamide]",< 3000 nM
6,"CC1CCN(c2cccc(S(=O)(=O)NC(=O)c3cccnc3N3CC(C)CC3(C)C)n2)CC1 (stereo not drawn) [Compound 2330, N—[[6-(4-methyl-1-piperidyl)-2-pyridyl]sulfonyl]-2-(2,2,4-trimethylpyrrolidin-1-yl)pyridine-3-carboxamide]",< 3000 nM
7,"Cc1cccc(C)c1Oc1nc(-c2cc(F)cc(OCC(C)C)c2)ccc1C(=O)NS(=O)(=O)c1ccc(O)c(N)n1 [Compound 2331, N-[(6-amino-5-hydroxy-2-pyridyl)sulfonyl]-2-(2,6-dimethylphenoxy)-6-(3-fluoro-5-isobutoxy-phenyl)pyridine-3-carboxamide]",< 3000 nM
8,"COc1cc(F)c(F)cc1-c1ccc(C(=O)NS(=O)(=O)c2cccnc2N)c(N2C[C@@H](C)CC2(C)C)n1 [Compound 2334, N-[(2-amino-3-pyridyl)sulfonyl]-6-(4,5-difluoro-2-methoxy-phenyl)-2-[(4S)-2,2,4-trimethylpyrrolidin-1-yl]pyridine-3-carboxamide]",< 3000 nM
9,"CC1CN(c2ncccc2C(=O)NS(=O)(=O)c2cccc(NCCCCNC(=O)OC(C)(C)C)n2)C(C)(C)C1 (stereo not drawn) [Compound 2335, tert-butyl N—[4-[[6-[[2-(2,2,4-trimethylpyrrolidin-1-yl)pyridine-3-carbonyl]sulfamoyl]-2-pyridyl]amino]butyl]carbamate]",3000 to 10000 nM
10,"CC1CCC(Oc2cccc(S(=O)(=O)NC(=O)c3cccnc3N3CC(C)CC3(C)C)n2)CC1 (stereo not drawn) [Compound 2336, N—[[6-(4-methylcyclohexoxy)-2-pyridyl]sulfonyl]-2-(2,2,4-trimethylpyrrolidin-1-yl)pyridine-3-carboxamide]",< 3000 nM
11,"CC1CN(c2ncc(-c3ccc(C(F)(F)F)cc3)cc2C(=O)NS(=O)(=O)c2cccc(N)n2)C(C)(C)C1 (stereo not drawn) [Compound 2337, N-[(6-amino-2-pyridyl)sulfonyl]-5-[4-(trifluoromethyl)phenyl]-2-(2,2,4-trimethylpyrrolidin-1-yl)pyridine-3-carboxamide]",< 3000 nM
12,"Cc1cccc(-c2ccc(C(=O)NS(=O)(=O)N3CC[C@H](N)C3)c(N3C[C@@H](C)CC3(C)C)n2)c1 [Compound 2339, N-[(3S)-3-aminopyrrolidin-1-yl]sulfonyl-6-(m-tolyl)-2-[(4S)-2,2,4-trimethylpyrrolidin-1-yl]pyridine-3-carboxamide]",< 3000 nM
13,"CC1CN(c2ncccc2C(=O)NS(=O)(=O)c2cccc(N3CC4CCCC4C3)n2)C(C)(C)C1 (stereo not drawn) [Compound 2340, N—[[6-(3,3a,4,5,6,6a-hexahydro-1H-cyclopenta[c]pyrrol-2-yl)-2-pyridyl]sulfonyl]-2-(2,2,4-trimethylpyrrolidin-1-yl)pyridine-3-carboxamide]",< 3000 nM
14,"CCCN(CCOC)c1cccc(S(=O)(=O)NC(=O)c2cccnc2N2CC(C)CC2(C)C)n1 (stereo not drawn) [Compound 2343, N—[[6-[2-methoxyethyl(propyl)amino]-2-pyridyl]sulfonyl]-2-(2,2,4-trimethylpyrrolidin-1-yl)pyridine-3-carboxamide]",< 3000 nM
15,"C[C@@H]1CN(c2nc(C(C)(C)C)c(C3=CCN(C(=O)CC(C)(C)C)CC3)cc2C(=O)NS(=O)(=O)c2cccc(N)n2)C(C)(C)C1 [Compound 2344, N-[(6-amino-2-pyridyl)sulfonyl]-6-tert-butyl-5-[1-(3,3-dimethylbutanoyl)-3,6-dihydro-2H-pyridin-4-yl]-2-[(4S)-2,2,4-trimethylpyrrolidin-1-yl]pyridine-3-carboxamide]",< 3000 nM
16,"Cc1ccc(-c2ccc(C(=O)NS(=O)(=O)c3cccnc3N)c(N3C[C@@H](C)CC3(C)C)n2)cc1F [Compound 2345, N-[(2-amino-3-pyridyl)sulfonyl]-6-(3-fluoro-4-methyl-phenyl)-2-[(4S)-2,2,4-trimethylpyrrolidin-1-yl]pyridine-3-carboxamide]",< 3000 nM
17,"CC(C)COc1cc(F)cc(-c2ccc(C(=O)NS(=O)(=O)N3C[C@H]4C[C@@H]3CO4)c(N3C[C@@H](C)CC3(C)C)n2)c1 [Compound 2347, 6-(3-fluoro-5-isobutoxy-phenyl)-N—[[(1R,4R)-2-oxa-5-azabicyclo[2.2.1]heptan-5-yl]sulfonyl]-2-[(4S)-2,2,4-trimethylpyrrolidin-1-yl]pyridine-3-carboxamide]",< 3000 nM
18,"Cc1cc(F)cc(-c2ccc(C(=O)NS(=O)(=O)c3ccc[nH]c3=O)c(N3C[C@@H](C)CC3(C)C)n2)c1 [Compound 2348, 6-(3-fluoro-5-methyl-phenyl)-N-[(2-oxo-1H-pyridin-3-yl)sulfonyl]-2-[(4S)-2,2,4-trimethylpyrrolidin-1-yl]pyridine-3-carboxamide]",< 3000 nM
19,"C[C@@H]1CN(c2nc(-c3cc(O)cc(F)c3)ccc2C(=O)NS(=O)(=O)c2cccnc2N)C(C)(C)C1 [Compound 2349, N-[(2-amino-3-pyridyl)sulfonyl]-6-(3-fluoro-5-hydroxy-phenyl)-2-[(4S)-2,2,4-trimethylpyrrolidin-1-yl]pyridine-3-carboxamide]",3000 to 10000 nM
20,"C[C@@H]1CN(c2nc(C3CCCCO3)ccc2C(=O)NS(=O)(=O)c2cccnc2N)C(C)(C)C1 (stereo partly drawn) [Compound 2351, N-[(2-amino-3-pyridyl)sulfonyl]-6-tetrahydropyran-2-yl-2-[(4S)-2,2,4-trimethylpyrrolidin-1-yl]pyridine-3-carboxamide]",< 3000 nM
21,"C[C@@H]1CN(c2nc(-c3ccc4c(ccn4C)c3)ccc2C(=O)NS(=O)(=O)c2cccnc2N)C(C)(C)C1 [Compound 2352, N-[(2-amino-3-pyridyl)sulfonyl]-6-(1-methylindol-5-yl)-2-[(4S)-2,2,4-trimethylpyrrolidin-1-yl]pyridine-3-carboxamide]",< 3000 nM

# The remaining lines, values ahead:
row,EC30,SMILES
1,3000 to 10000 nM,"CC(=O)c1ccc(Nc2cccc(S(=O)(=O)NC(=O)c3cccnc3N3CC(C)CC3(C)C)n2)cc1 (stereo not drawn) [Compound 2328, N—[[6-(4-acetylanilino)-2-pyridyl]sulfonyl]-2-(2,2,4-trimethylpyrrolidin-1-yl)pyridine-3-carboxamide]"
2,< 3000 nM,"CC1CN(c2ncccc2C(=O)NS(=O)(=O)c2cccc(Oc3cccc(F)c3)n2)C(C)(C)C1 (stereo not drawn) [Compound 2332, N—[[6-(3-fluorophenoxy)-2-pyridyl]sulfonyl]-2-(2,2,4-trimethylpyrrolidin-1-yl)pyridine-3-carboxamide]"
3,3000 to 10000 nM,"CC1CN(c2ncccc2C(=O)NS(=O)(=O)c2cccc(Oc3cccc4cccnc34)n2)C(C)(C)C1 (stereo not drawn) [Compound 2333, N—[[6-(8-quinolyloxy)-2-pyridyl]sulfonyl]-2-(2,2,4-trimethylpyrrolidin-1-yl)pyridine-3-carboxamide]"
4,< 3000 nM,"CC1CN(c2ncccc2C(=O)NS(=O)(=O)c2cccc(Oc3cccc4[nH]ccc34)n2)C(C)(C)C1 (stereo not drawn) [Compound 2338, N—[[6-(1H-indol-4-yloxy)-2-pyridyl]sulfonyl]-2-(2,2,4-trimethylpyrrolidin-1-yl)pyridine-3-carboxamide]"
5,< 3000 nM,"CC1CN(c2ncccc2C(=O)NS(=O)(=O)c2cccc(Nc3ccc(F)c(F)c3)n2)C(C)(C)C1 (stereo not drawn) [Compound 2341, N—[[6-(3,4-difluoroanilino)-2-pyridyl]sulfonyl]-2-(2,2,4-trimethylpyrrolidin-1-yl)pyridine-3-carboxamide]"
6,< 3000 nM,"CC1CN(c2ncccc2C(=O)NS(=O)(=O)c2cccc(OCC3CC3)n2)C(C)(C)C1 (stereo not drawn) [Compound 2342, N—[[6-(cyclopropylmethoxy)-2-pyridyl]sulfonyl]-2-(2,2,4-trimethylpyrrolidin-1-yl)pyridine-3-carboxamide]"
7,< 3000 nM,"CC(C)CCN(C)c1cccc(S(=O)(=O)NC(=O)c2cccnc2N2CC(C)CC2(C)C)n1 (stereo not drawn) [Compound 2346, N—[[6-[isopentyl(methyl)amino]-2-pyridyl]sulfonyl]-2-(2,2,4-trimethylpyrrolidin-1-yl)pyridine-3-carboxamide]"
8,3000 to 10000 nM,"CC1CN(c2ncccc2C(=O)NS(=O)(=O)c2cccc(NCC(F)F)n2)C(C)(C)C1 (stereo not drawn) [Compound 2350, N—[[6-(2,2-difluoroethylamino)-2-pyridyl]sulfonyl]-2-(2,2,4-trimethylpyrrolidin-1-yl)pyridine-3-carboxamide]"
9,< 3000 nM,"CC1CN(c2ncccc2C(=O)NS(=O)(=O)c2cccc(Nc3cccc(OC(C)C)c3)n2)C(C)(C)C1 (stereo not drawn) [Compound 2353, N—[[6-(3-isopropoxyanilino)-2-pyridyl]sulfonyl]-2-(2,2,4-trimethylpyrrolidin-1-yl)pyridine-3-carboxamide]"
